Measured values: US7771935B2, “Evolving new molecular function” (President and Fellows of Harvard College, priority 2002, dated 2010)
pKd: −log10 of the molar value.

Assays:
chymotrypsin = target: T1, chymotrypsin (Bos taurus, UniProt P00766, DEL14-15/DEL147-148); conditions: known binding of the free ligand; cited from earlier work
T1 construct: purchased Sigma

Taq DNA polymerase [1] = target: T2, Taq DNA polymerase (Thermus aquaticus, UniProt P19821); assay: PCR incorporation of modified nucleotide triphosphates by Taq DNA polymerase; assay type: biochemical; conditions: 30 PCR cycles; pUC19 template; three natural dNTPs
T2 sequence (P19821 whole entry): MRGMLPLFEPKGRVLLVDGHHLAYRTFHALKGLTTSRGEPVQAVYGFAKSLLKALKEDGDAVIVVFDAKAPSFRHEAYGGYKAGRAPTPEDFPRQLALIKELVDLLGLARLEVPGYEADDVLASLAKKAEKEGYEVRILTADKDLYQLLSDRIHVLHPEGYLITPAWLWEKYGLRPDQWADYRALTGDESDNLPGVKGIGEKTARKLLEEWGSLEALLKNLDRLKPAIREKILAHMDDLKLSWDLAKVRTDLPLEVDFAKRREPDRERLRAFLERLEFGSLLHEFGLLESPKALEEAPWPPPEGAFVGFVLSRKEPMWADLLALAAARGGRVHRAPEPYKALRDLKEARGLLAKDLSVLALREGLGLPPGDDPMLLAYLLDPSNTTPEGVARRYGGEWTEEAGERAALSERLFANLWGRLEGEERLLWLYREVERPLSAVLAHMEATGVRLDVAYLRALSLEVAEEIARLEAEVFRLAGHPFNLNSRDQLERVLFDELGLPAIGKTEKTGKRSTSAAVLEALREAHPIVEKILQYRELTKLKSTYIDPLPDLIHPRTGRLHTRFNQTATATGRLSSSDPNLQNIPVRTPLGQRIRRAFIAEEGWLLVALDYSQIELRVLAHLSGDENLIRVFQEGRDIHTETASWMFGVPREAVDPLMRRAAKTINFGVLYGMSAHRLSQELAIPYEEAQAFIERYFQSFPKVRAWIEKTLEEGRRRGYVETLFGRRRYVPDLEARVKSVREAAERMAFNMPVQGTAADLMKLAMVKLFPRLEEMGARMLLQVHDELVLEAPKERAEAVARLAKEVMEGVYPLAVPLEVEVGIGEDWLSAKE
Protocol: The ability of the modified nucleotide triphosphates containing metal-binding functionality shown in FIG. 75 to be accepted by DNA polymerase enzymes was studied. Synthetic nucleotide triphosphates were purified by ion exchange and reverse-phase HPLC and were added to PCR reactions containing Taq DNA polymerase, three natural deoxynucleotide triphosphates, pUC19 template DNA, and two DNA primers. The primers were chosen to generate PCR products ranging from 50 to 200 base pairs in length. Control PCR reactions contained the four natural deoxynucleotide triphosphates and no non-natural nucleotides.

Vent DNA polymerase = Vent DNA polymerase (Thermococcus litoralis, UniProt P30317, DEL1082-1471/DEL495-1032); conditions: PCR conditions; cited from earlier work
Vent DNA polymerase, sequence (P30317 other isoform, or with tags, fused parts or gaps DEL495-1032/DEL1082-1471): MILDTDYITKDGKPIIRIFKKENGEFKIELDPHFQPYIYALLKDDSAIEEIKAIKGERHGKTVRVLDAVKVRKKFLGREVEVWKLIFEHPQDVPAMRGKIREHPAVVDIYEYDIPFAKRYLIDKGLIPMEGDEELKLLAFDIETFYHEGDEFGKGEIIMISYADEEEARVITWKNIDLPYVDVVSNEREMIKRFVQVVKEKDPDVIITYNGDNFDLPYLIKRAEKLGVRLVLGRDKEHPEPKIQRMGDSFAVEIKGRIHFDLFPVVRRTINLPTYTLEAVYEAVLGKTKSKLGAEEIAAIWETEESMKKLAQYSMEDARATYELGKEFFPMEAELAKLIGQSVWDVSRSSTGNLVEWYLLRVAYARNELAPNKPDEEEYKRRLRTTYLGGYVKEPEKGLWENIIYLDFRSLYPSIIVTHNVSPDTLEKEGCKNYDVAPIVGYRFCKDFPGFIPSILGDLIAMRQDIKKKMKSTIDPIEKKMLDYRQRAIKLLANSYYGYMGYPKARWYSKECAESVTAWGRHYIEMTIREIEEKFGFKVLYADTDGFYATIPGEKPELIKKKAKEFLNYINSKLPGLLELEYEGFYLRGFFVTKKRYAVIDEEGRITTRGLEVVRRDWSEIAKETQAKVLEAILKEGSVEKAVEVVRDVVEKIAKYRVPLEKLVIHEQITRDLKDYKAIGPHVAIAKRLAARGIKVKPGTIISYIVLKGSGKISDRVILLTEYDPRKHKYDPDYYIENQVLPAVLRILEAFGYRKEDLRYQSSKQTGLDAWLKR

papain = target: T3, papain (Carica papaya, UniProt P00784); conditions: known binding of the free ligand; cited from earlier work
T3 construct: purchased Sigma
T3 sequence (P00784 134-345): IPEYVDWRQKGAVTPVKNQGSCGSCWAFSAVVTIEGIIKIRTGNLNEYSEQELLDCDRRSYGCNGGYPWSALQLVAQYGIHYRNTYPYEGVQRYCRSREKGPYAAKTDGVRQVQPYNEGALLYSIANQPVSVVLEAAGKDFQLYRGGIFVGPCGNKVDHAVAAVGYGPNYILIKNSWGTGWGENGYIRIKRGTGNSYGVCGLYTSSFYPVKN

Taq DNA polymerase [2] = target: T2, Taq DNA polymerase; conditions: cited from earlier work
[3] = Bromide structural and configurational stability under the reaction conditions (MALDI-TOF, chiral HPLC); assay type: physicochemical; conditions: 16 hours under the reaction conditions; both enantiomers
[4] = target: glutathione S-transferase (GST); conditions: read-out: Kd of binding to glutathione S-transferase (GST); cited from earlier work

| Compound | incorporation by Taq DNA polymerase (Taq DNA polymerase [1]) | acceptance by Taq DNA polymerase (Taq DNA polymerase [2]) | further results |
| --- | --- | --- | --- |
| O=C(O)CCCC[C@@H]1SC[C@@H]2NC(=O)N[C@@H]21 [biotin] |  |  | affinity for chymotrypsin (chymotrypsin): no significant affinity |
| CCc1nc2c(N)ncnc2n1C1CC(O)C(COP(=O)(O)OP(=O)(O)OP(=O)(O)O)O1 (stereo not drawn) [8-modified adenosine triphosphate 33] | not accepted |  |  |
| CCCC#Cc1cn([C@H]2C[C@H](O)[C@@H](CO)O2)c(=O)[nH]c1=O [analog 1, 5-(1-pentynyl)-deoxyuridine] |  |  | acceptance by Vent DNA polymerase (Vent DNA polymerase): acceptance |
| CC(C)C[C@H](NC(=O)[C@@H](NC(=O)N[C@@H](Cc1ccccc1)C(=O)O)[C@@H]1CCN=C(N)N1)C(=O)N[C@H](C=O)Cc1ccccc1 [chymostatin] |  |  | affinity for papain (papain): binds to both proteases; affinity for chymotrypsin (chymotrypsin): binds to both proteases |
| NCC#Cc1cn([C@H]2C[C@H](O)[C@@H](CO)O2)c2ncnc(N)c12 [uridine analog 13, 7-aminopropynyl-7-deazadeoxyadenosine] | efficiently incorporated | acceptance |  |
| Cc1nc2c(N)ncnc2n1C1CC(O)C(COP(=O)(O)OP(=O)(O)OP(=O)(O)O)O1 (stereo not drawn) [8-modified adenosine triphosphate 32] | not accepted |  |  |
| NCC=Cc1cn(C2CC(O)C(CO)O2)c2ncnc(N)c12 (stereo not drawn) [analog 12] |  | acceptance |  |
| CNC(=O)C(C)Br (racemic) [N-methyl 2-bromopropionamide] |  |  | configurational stability by chiral HPLC [3]: No change in retention time |
| NCCCc1cn(C2CC(O)C(CO)O2)c2ncnc(N)c12 (stereo not drawn) [analog 11] |  | acceptance |  |
| NC(=O)CNC(=O)[C@H](CS)NC(=O)CC[C@H](N)C(=O)O [glutathione amide] |  |  | pKd [4]: ~5.00 |
